Results as given in patent publication US20140274682A1, “COMPOSITIONS AND METHODS FOR REDUCING DUST AND REPELLING, CONTROLLING, OR DIRECTING AN INSECT” (priority 2013, published 2014).

Legend:
honeybees = test: Honeybee repulsion experiment at feeding stations; format: in vivo; details: 2% by weight with 50% sucrose solution in feeder
Experimental: FIG. 5 describes the feeding station arrangement (A and B) for the honeybee repulsion experiments described herein. As set forth in […], panel (A) sets forth the bee cage positions on the left portion of panel (A) with the randomized feeding station positions on the right portion of panel (A). Panel (B) sets forth an alignment of the randomized feeding station positions with a distance of two meters between feeding stations. A total of eight feeding stations were evaluated at a ten meter distance in front of the respective bee hives. The feeding stations were placed two meters apart from one another.
Honeybees were trained to deep feeders (eight positions), each containing a 50% sucrose solution for one day. After the honeybees were trained to each feeder, the 50% sucrose feeder at randomized positions 1-8 was replaced with a shallow feeder containing a combination of repelling compounds and a 50% sucrose solution according to Table 9. In accordance with FIGS. 5 and 6, 2% by weight of Camphor oil (T4), Ajowan oil (T5), Camphor powder (T6), Rosemary oil (T7), and 2-Decanone (T8) in combination with a 50% sucrose treatment were added to feeders on day two.
Table 9 describes active agents evaluated for bee repulsion and their randomized feeding station positions. As described in […], T1 (control), T2 (control), T3 (control), T4 (Camphor oil), T5 (Ajowan oil), T6 (Camphor powder), T7 (Rosemary oil), and T8 (2-Decanone).
FIG. 5 evaluates the number of bees visiting a respective feed station over a time interval. FIG. 6 sets forth the mean number of honeybees visiting feeding station over a period of four hours.

[1] = Stability test of Poncho 600 with Eugenol, clothianidin content by HPLC; format: physicochemical; details: in Poncho combined with Eugenol; up to 54° C. for seven days
Experimental: Table 10 describes a stability test with a combination of Eugenol and Poncho evaluated at room temperature, 40° C., and 54° C. at zero time, 3 days, and 7 days as confirmed by high performance liquid chromatography (HPLC).

[2] = Stability test of Poncho 600 with α-terpineol, clothianidin content by HPLC; format: physicochemical; details: in Poncho combined with α-terpineol; up to 54° C. for eight days
Experimental: Table 11 describes a stability test with a combination of α-terpineol and Poncho 600 evaluated at room temperature, 40° C., and 54° C. at zero time, 2 days, and 8 days as confirmed by HPLC.

SMILES | Repellency to honeybees at 24 hours (honeybees) | Repellency to honeybees at 24 hours (honeybees; listed as 2-decanone) | Repellency to honeybees over the 4 hour assessment period (honeybees; full 4 hour assessment period) | Chemical stability of clothianidin content [1] | Chemical stability of clothianidin content [2]
CCCCCCCCC(C)=O [Compound 2-Decanone, 2-decanone (methyl-n-octyl ketone)] | exhibited repellency | still repellent | highly repellent | – | –
CN/C(=N\[N+](=O)[O-])NCc1cnc(Cl)s1 [clothianidin] | – | – | – | exhibited chemical stability | exhibited chemical stability
